#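 Five concentrations, 48 hours, 96-well plates. GI50 marks 50% less growth.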 The source made the active and inactive calls. Cut-off read from the data, not from the text of the source: active = GI50 up to about 1.1 µM and inactive = higher.
# Legend:
# Assay in all cases: growth of human tumour cells (NCI), 48 h
# NCI-H460 = system: NCI-H460
# DLD-1 = system: DLD-1
# DMS-273 = system: DMS-273
# HOP-62 = system: HOP-62
# SK-MEL-5 = system: SK-MEL-5
# OVCAR-5 = system: OVCAR-5
# NCI-H23 = system: NCI-H23
# XF498 = system: XF498
# RXF 393 = system: RXF 393
# U-251 = system: U-251
# SF-539 = system: SF-539
# 786-0 = system: 786-0
# UO-31 = system: UO-31
# NCI-H226 = system: NCI-H226
# EKVX = system: EKVX
# HCT-15 = system: HCT-15
# OVCAR-4 = system: OVCAR-4
# SNB-75 = system: SNB-75
# LOX IMVI = system: LOX IMVI
# COLO 205 = system: COLO 205
# SK-OV-3 = system: SK-OV-3
# RPMI-8226 = system: RPMI-8226
# ACHN = system: ACHN
# OVCAR-8 = system: OVCAR-8
# SNB-78 = system: SNB-78
# SW-620 = system: SW-620
# HL-60 = system: HL-60
# M19-MEL = system: M19-MEL
# SR = system: SR
# TK-10 = system: TK-10
# IGROV-1 = system: IGROV-1
# SN12C = system: SN12C
# LXFL 529 = system: LXFL 529
# HCT-116 = system: HCT-116
# DMS-114 = system: DMS-114
# A549 = system: A549
# HT-29 = system: HT-29
# KM-20L2 = system: KM-20L2
# UACC-62 = system: UACC-62
# HCC 2998 = system: HCC 2998
# UACC-257 = system: UACC-257
# MOLT-4 = system: MOLT-4
# SK-MEL-28 = system: SK-MEL-28
# CCRF-CEM = system: CCRF-CEM
# K562 = system: K562
# SNB-19 = system: SNB-19
# SF-268 = system: SF-268
# M14 = system: M14
# KM12 = system: KM12
# NCI-H522 = system: NCI-H522
# Malme-3M = system: Malme-3M
# BT-549 = system: BT-549
# T47D = system: T47D
# CAKI-1 = system: CAKI-1
# HOP-18 = system: HOP-18
# DU-145 = system: DU-145
# MDA-N = system: MDA-N
# OVCAR-3 = system: OVCAR-3
# HOP-92 = system: HOP-92
# PC-3 = system: PC-3
# MCF7 = system: MCF7
# MDA-MB-435 = system: MDA-MB-435
# SK-MEL-2 = system: SK-MEL-2
# SF-295 = system: SF-295
# A498 = system: A498
# NCI/ADR-RES = system: NCI/ADR-RES
smiles,measurement,setting,value
CCO[C@]12C[C@H](OC)[C@@]3(O)CC(C1[C@H]3OCc1ccccc1)C13C4C2[C@H](OC)C1[C@](COC)(CN4CC)[C@H](O)C[C@@H]3OC (stereo not given in full),GI50,NCI-H460,> 100 µM (inactive)
same,GI50,DLD-1,> 100 µM (inactive)
same,GI50,DMS-273,> 100 µM (inactive)
same,GI50,HOP-62,> 100 µM (inactive)
same,GI50,SK-MEL-5,> 100 µM (inactive)
same,GI50,OVCAR-5,> 100 µM (inactive)
same,GI50,NCI-H23,> 100 µM (inactive)
same,GI50,XF498,> 100 µM (inactive)
same,GI50,RXF 393,> 100 µM (inactive)
same,GI50,U-251,> 100 µM (inactive)
same,GI50,SF-539,> 100 µM (inactive)
same,GI50,786-0,7.38 µM (inactive)
same,GI50,UO-31,> 100 µM (inactive)
same,GI50,NCI-H226,> 100 µM (inactive)
same,GI50,EKVX,> 100 µM (inactive)
same,GI50,HCT-15,> 100 µM
same,GI50,OVCAR-4,> 100 µM (inactive)
same,GI50,SNB-75,> 100 µM (inactive)
same,GI50,LOX IMVI,> 100 µM (inactive)
same,GI50,COLO 205,> 100 µM (inactive)
same,GI50,SK-OV-3,> 100 µM (inactive)
same,GI50,RPMI-8226,> 100 µM (inactive)
same,GI50,ACHN,> 100 µM (inactive)
same,GI50,OVCAR-8,> 100 µM (inactive)
same,GI50,SNB-78,> 100 µM (inactive)
same,GI50,SW-620,> 100 µM (inactive)
same,GI50,HL-60,> 100 µM (inactive)
same,GI50,M19-MEL,> 100 µM (inactive)
same,GI50,SR,78.5 µM (inactive)
same,GI50,TK-10,> 100 µM (inactive)
same,GI50,IGROV-1,> 100 µM (inactive)
same,GI50,SN12C,> 100 µM (inactive)
same,GI50,LXFL 529,> 100 µM (inactive)
same,GI50,HCT-116,> 100 µM (inactive)
same,GI50,DMS-114,> 100 µM (inactive)
same,GI50,A549,> 100 µM (inactive)
same,GI50,HT-29,> 100 µM (inactive)
same,GI50,KM-20L2,> 100 µM (inactive)
same,GI50,UACC-62,> 100 µM (inactive)
same,GI50,HCC 2998,> 100 µM (inactive)
same,GI50,UACC-257,> 100 µM (inactive)
same,GI50,MOLT-4,95.9 µM (inactive)
same,GI50,SK-MEL-28,> 100 µM (inactive)
same,GI50,CCRF-CEM,> 100 µM (inactive)
same,GI50,K562,> 100 µM (inactive)
same,GI50,SNB-19,> 100 µM (inactive)
same,GI50,SF-268,> 100 µM (inactive)
same,GI50,M14,> 100 µM (inactive)
Cc1c2cc[n+](C)cc2c(C)c2c1[nH]c1ccccc12,GI50,NCI-H460,1.89 µM (inactive)
same,GI50,KM12,0.429 µM (active)
same,GI50,DLD-1,1.65 µM (inactive)
same,GI50,NCI-H522,0.774 µM (active)
same,GI50,DMS-273,1.64 µM (inactive)
same,GI50,HOP-62,0.45 µM (active)
same,GI50,SK-MEL-5,1.28 µM (inactive)
same,GI50,Malme-3M,0.953 µM (active)
same,GI50,OVCAR-5,10.2 µM (inactive)
same,GI50,NCI-H23,0.773 µM (active)
same,GI50,BT-549,2.38 µM (inactive)
same,GI50,XF498,0.608 µM (active)
same,GI50,RXF 393,1.7 µM (inactive)
same,GI50,U-251,0.421 µM (active)
same,GI50,SF-539,0.505 µM (active)
same,GI50,UO-31,8.65 µM (inactive)
same,GI50,NCI-H226,0.312 µM (active)
same,GI50,T47D,0.157 µM (active)
same,GI50,EKVX,0.834 µM (active)
same,GI50,CAKI-1,2.69 µM (inactive)
same,GI50,OVCAR-4,2.03 µM (inactive)
same,GI50,HOP-18,2.91 µM (inactive)
same,GI50,SNB-75,0.184 µM (active)
same,GI50,DU-145,0.52 µM (active)
same,GI50,LOX IMVI,6.59 µM (inactive)
same,GI50,COLO 205,0.538 µM (active)
same,GI50,SK-OV-3,4.88 µM (inactive)
same,GI50,RPMI-8226,8.02 µM (inactive)
same,GI50,ACHN,12.8 µM (inactive)
same,GI50,MDA-N,1.92 µM (inactive)
same,GI50,OVCAR-8,0.368 µM (active)
same,GI50,SW-620,0.973 µM (active)
same,GI50,OVCAR-3,3.06 µM (inactive)
same,GI50,HL-60,8.69 µM (inactive)
same,GI50,M19-MEL,0.718 µM (active)
same,GI50,SR,0.497 µM (active)
same,GI50,TK-10,27.2 µM (inactive)
same,GI50,IGROV-1,3.79 µM (inactive)
same,GI50,SN12C,0.172 µM (active)
same,GI50,HOP-92,1.56 µM (inactive)
same,GI50,HCT-116,3.76 µM (inactive)
same,GI50,PC-3,4.83 µM (inactive)
same,GI50,DMS-114,0.315 µM (active)
same,GI50,A549,0.249 µM (active)
same,GI50,HT-29,5.66 µM (inactive)
same,GI50,UACC-62,5.18 µM (inactive)
same,GI50,MCF7,2.44 µM (inactive)
same,GI50,MDA-MB-435,9.02 µM (inactive)
same,GI50,HCC 2998,2.28 µM (inactive)
same,GI50,UACC-257,6.41 µM (inactive)
same,GI50,MOLT-4,0.861 µM (active)
same,GI50,SK-MEL-28,1.62 µM (inactive)
same,GI50,CCRF-CEM,2.25 µM (inactive)
same,GI50,K562,3.05 µM (inactive)
same,GI50,SK-MEL-2,1.28 µM (inactive)
same,GI50,SF-295,0.237 µM (active)
same,GI50,SNB-19,0.301 µM (active)
same,GI50,SF-268,0.467 µM (active)
same,GI50,A498,2.39 µM (inactive)
same,GI50,M14,7.45 µM (inactive)
O=C1C=C2C(=CCOC2O)O1 (stereo not given) [PATULIN],GI50,NCI/ADR-RES,0.733 µM (active)
same,GI50,NCI-H460,1.16 µM (inactive)
same,GI50,DLD-1,0.456 µM (active)
same,GI50,NCI-H522,0.365 µM (active)
same,GI50,DMS-273,0.881 µM (active)
same,GI50,HOP-62,10.6 µM (inactive)
same,GI50,SK-MEL-5,1 µM (active)
same,GI50,Malme-3M,1.12 µM (active)
same,GI50,OVCAR-5,7.4 µM (inactive)
same,GI50,NCI-H23,1.15 µM (inactive)
same,GI50,XF498,0.267 µM (active)
same,GI50,NCI-H226,3.49 µM (inactive)
same,GI50,HCT-15,0.668 µM
same,GI50,OVCAR-4,2.84 µM (inactive)
same,GI50,HOP-18,1.98 µM (inactive)
same,GI50,SNB-75,4.28 µM (inactive)
same,GI50,RPMI-8226,0.189 µM (active)
same,GI50,SNB-78,2.32 µM (inactive)
same,GI50,M19-MEL,1.29 µM (inactive)
same,GI50,IGROV-1,2.1 µM (inactive)
same,GI50,SN12C,0.618 µM (active)
same,GI50,HOP-92,3.08 µM (inactive)
same,GI50,HCT-116,0.223 µM (active)
same,GI50,DMS-114,1.08 µM (active)
same,GI50,A549,4.1 µM (inactive)
same,GI50,KM-20L2,2.28 µM (inactive)
same,GI50,UACC-62,0.851 µM (active)
same,GI50,HCC 2998,1.15 µM (inactive)
same,GI50,UACC-257,0.723 µM (active)
same,GI50,MOLT-4,0.368 µM (active)
same,GI50,CCRF-CEM,0.158 µM (active)
same,GI50,SK-MEL-2,1.37 µM (inactive)

# — ChEMBL document CHEMBL1201862, “PubChem BioAssay data set” (2004)
